Laboratory results from patent US8222400B2, “Cyclodextrin compound modified with folic acid, process for production thereof, drug delivery agent for targeting drug delivery system, pharmaceutical composition, and imaging agent” (Nanodex Inc., priority 2007, dated 2012).

Key:
Caco-2 tumor cells = assay: SPR measurement of interaction with immobilized Caco-2 tumor cells; assay type: binding, human; details: SPR linear plot, varied concentrations, Caco-2 cells-immobilized cuvette
Method: The SPR measurements of the exemplary compound 1 that bound to human colon cancer-derived Caco-2 cells and, as comparative target cells, normal rat liver cells were conducted by using the similar foregoing procedures. Each interaction was evaluated comparatively.
Experiment 6-1: The SPR measurements of the interaction with Caco-2 tumor cells The immobilization of Caco-2 cells was performed by the procedures similar to those of Example 5 <Immobilization of FBP>. Instead of using the solution that was used for the immobilization of FBP, the solution containing a suitable amount and concentration of the solution (phosphate buffer solution (pH 7.3)+0.85% NaCl) (manufactured by CORNING) containing Caco-2 cells was used as a fixative. In addition, to the Caco-2 cells-immobilized cuvette was added 200 μl of the exemplary compound 1 ([…]) that was dissolved in the phosphate buffer solution (pH 7.3)+0.85% NaCl. The SPR measurements were then carried out.
Experiment 7-1: The measurements of the interaction with Caco-2 tumor cells The immobilization of Caco-2 cells was performed by the procedures similar to those of Example 5 <Immobilization of FBP>. […]

[1] = SPR measurement of drug-inclusion association with immobilized DXR; assay type: binding; details: SPR linear plot, DXR-immobilized cuvette
Method: The capabilities of the CD compound of the invention were evaluated by the procedures similar to those of Experiment 7-1. An anticancer and antibiotic agent, doxorubicin (hereafter, referred to as “DXR”) was used as a drug.
Immobilization of DXR on the surface of an optical biosensor cuvette was performed by using the procedures similar to those of the above immobilization of FBP. A buffer with a different pH was used as a solvent for drugs.
An aminosilane group on the surface of the cuvette was reacted with a linker. 1 mM of the BS^3 solution/10 mM of phosphate buffer solution (pH 6.5) was used for the reaction. Then, an amino group of DXR was reacted with the other side of BS^3 linker. The steps were repeated one or more times until the response value became constant. An acetic anhydride-acetic acid solution (volume ratio 1:1) was injected into the cuvette to deactivate any remaining aminosilane groups and to block these. After the blocking, the solution was replaced by 10 mM acetic buffer (pH 5.3). The DXR solution (2 mg DXR/10 mM acetic buffer (pH5.3)) was added thereto. The reaction was carried out. […]
The kinetic behavior of the interaction of the exemplary compound 1 with DXR was measured by the procedures similar to those of Experiment 1. […]

[2] = biological target: folate receptor protein (FBP) overexpressed on the surface of cancer cells (Homo sapiens, UniProt P15328); details: from reviews (Wang and Low 1998; Low et al. 2008); cited from earlier work
[3] = biological target: T1, folate binding proteins (FBP) (Bos taurus, UniProt P02702); assay: SPR measurement of association with immobilized folate binding protein (FBP); details: each at 1.0×10^−6 M, 25.0° C.
T1 construct: purchased SIGMA
Method: Specifically, the ligand (e.g., folate-binding proteins) is immobilized on a cuvette, and the analyte (e.g., the cyclodextrin (CD) compound of the invention) that is dissolved in a buffer solution is injected into the above cuvette. Evanescent wave and surface plasmon wave excite the surface plasmon when the angle of incidence on a prism is […] the angle of total reflection. The angle of incidence is measured. The angle of incidence is changed depending on the mass within the evanescent field depth of 600 nm. The amount of the changes can be observed and refers to the response (R). This angle of incidence is proportional to the mass of the adsorbed molecule. In other words, these mass changes can indicate the interaction. The reagents used for immobilization were obtained as follows: • 1 mM BS^3 solution: 2.9 mg of Bis(sulfosuccinimidyl) suberate (BS^3) was dissolved into 5 ml of 10 mM phosphate buffer solution (pH 7.2); • a solution used for immobilization of FBP: 1 mg of FBP (manufactured by SIGMA) was dissolved into 1 ml of 10 mM phosphate buffer solution (pH 7.2). […] A saturation curve shown in FIG. 1 was obtained (measured at a temperature of 25.0° C.). […] The association characteristics of each compound that bound to FBP were evaluated.

Chain of folate receptor protein (FBP) overexpressed on the surface of cancer cells (P15328 25-234): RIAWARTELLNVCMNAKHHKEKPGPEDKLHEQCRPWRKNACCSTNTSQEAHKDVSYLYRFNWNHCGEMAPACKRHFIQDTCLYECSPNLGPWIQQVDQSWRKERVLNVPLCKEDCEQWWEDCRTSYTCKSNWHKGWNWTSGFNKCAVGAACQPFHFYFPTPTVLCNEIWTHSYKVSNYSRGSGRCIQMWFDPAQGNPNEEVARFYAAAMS
T1 sequence (P02702 20-234): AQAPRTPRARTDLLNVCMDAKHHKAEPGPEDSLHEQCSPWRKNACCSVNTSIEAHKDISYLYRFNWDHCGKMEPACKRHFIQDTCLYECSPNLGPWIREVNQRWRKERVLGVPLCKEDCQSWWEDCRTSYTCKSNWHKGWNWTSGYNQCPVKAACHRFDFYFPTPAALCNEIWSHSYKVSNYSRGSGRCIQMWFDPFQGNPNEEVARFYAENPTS

For `CNC(=O)CCC(NC(=O)c1ccc(NCc2cnc3nc(N)[nH]c(=O)c3n2)cc1)C(=O)O` (stereo not shown) [Comparative Compound 3], the “Association constant Ka (receptor Caco-2)” value (Caco-2 tumor cells) was 18000 M⁻¹ and the “Association constant Ka (drug DXR)” value [1] was 2500 M⁻¹.

In the case of `Nc1nc2ncc(CNc3ccc(C(=O)N[C@@H](CCC(=O)O)C(=O)O)cc3)nc2c(=O)[nH]1` [folic acid], the “Association constant for folate receptor protein (FBP)” value [2] is given as 10^10 M^−1.

In the case of `OC[C@H]1O[C@@H]2O[C@H]3[C@H](O)[C@@H](O)[C@@H](O[C@H]4[C@H](O)[C@@H](O)[C@@H](O[C@H]5[C@H](O)[C@@H](O)[C@@H](O[C@H]6[C@H](O)[C@@H](O)[C@@H](O[C@H]7[C@H](O)[C@@H](O)[C@@H](O[C@H]8[C@H](O)[C@@H](O)[C@@H](O[C@H]1[C@H](O)[C@H]2O)O[C@@H]8CO)O[C@@H]7CO)O[C@@H]6CO)O[C@@H]5CO)O[C@@H]4CO)O[C@@H]3CO` [unmodified β-CD, β-cyclodextrin], the “Interaction with FBP (SPR response, FIG. 1)” value [3] is reported as “did not exhibit any interaction properties”.
